Results as given in patent US9757393B2 (priority 2015, dated 2017).

Experiments:
SREBP1c mRNA = assay: Semiquantitative RT-PCR, liver tissue: SREBP1c; assay type: in vivo, C57BL/6J mice; conditions: HFD-fed mice
Experimental: (§1) Experimental Animals: the experiments are conducted under the guidelines of the Institutional Animal Care and Use Committee of Central Taiwan University of Science and Technology. As previously described, four-week-old male C57BL/6J mice (n=63) is purchased from the National Laboratory Animal Breeding and Research Center, Ministry of Science and Technology. After 1-week of acclimatization, mice are designed to initiate the study, and the study lasts for 12 weeks. […] The CON group and high-fat control (HF) group are given with vehicle only. The low-fat diet consisted of fat 10%, whereas the high-fat diet (HFD) consisted of fat 45% (of total energy, % kcal). The compositions of the experimental diets are shown as described. At the end of the study, food is derived from the animals (from 10 p.m. to 10 a.m.). On the next day, the mice are sacrificed, and blood and tissue are collected for analysis. Livers, skeletal muscles, and white adipose tissues (WATs) (including epididymal, mesenteric and retroperitoneal WAT) are excised and weighed, and then immediately stored in a freezer at −80° C. Heparin (30 units/mL) (Sigma) is added to blood samples. Plasma samples are collected by centrifugation at 1600 g for 15 min at 4° C. within 30 min, and plasma is obtained for insulin and leptin level analysis.
(§2) The experiment is performed as in a previously described protocol. Total RNA from the liver tissue is isolated with a Trizol reagent (Molecular Research Center, Inc., Cincinnati, Ohio, USA) according to the manufacturer's directions. Total RNA (1 μg) is reverse transcribed to cDNA with 5 μL of Moloney murine leukemia virus reverse transcriptase (Epicenter, Madison, Wis., USA) as a previously described protocol. […] The relative density of the band is evaluated using AlphaDigiDoc 1201 software (Alpha Innotech Co., San Leandro, Calif., USA). All of the measured PCR products are normalized to the amount of cDNA of GAPDH in each sample.

HFD-fed C57BL/6J mice [1] = assay: Histopathology examination of epididymal WAT and liver tissue; assay type: in vivo; conditions: for ballooning degeneration of hepatocyte: liver tissue; for average area of adipocytes (epididymal WAT): oral gavage daily for 4 weeks
Experimental: as §1
A portion of the collected epididymal WAT and liver tissue is fixed with formalin (200 g/kg) neutral buffered solution and embedded in paraffin. Sections (8 μm) are cut and stained with hematoxylin and eosin. A microscope (Leica, DM2500) and Leica Digital camera (DFC-425-C) are used for microscopic examination and images taken, respectively.

PEPCK mRNA = assay: Semiquantitative RT-PCR, liver tissue: PEPCK; assay type: in vivo, C57BL/6J mice; conditions: HFD-fed mice
Experimental: as §1, §2

HFD-fed C57BL/6J mice [2] = assay: Hepatic lipid in HFD-fed mice; assay type: in vivo; conditions: oral gavage daily for 4 weeks
Experimental: as §1
Blood Lipid and Hepatic Lipid. Hepatic lipids are extracted as previously described. Liver sample (0.375 g) is homogenized with 1 mL of distilled water for 5 min for the hepatic lipid extraction and analyzed using a triglycerides kit as used for serum lipids.

DGAT2 mRNA = assay: Semiquantitative RT-PCR, liver tissue: DGAT2; assay type: in vivo, C57BL/6J mice; conditions: HFD-fed mice
Experimental: as §1, §2

SREBP2 mRNA = assay: Semiquantitative RT-PCR, liver tissue: SREBP2; assay type: in vivo, C57BL/6J mice; conditions: HFD-fed mice
Experimental: as §1, §2

membrane GLUT4 = assay: Western blotting of membrane GLUT4 in skeletal muscle; assay type: in vivo, C57BL/6J mice; conditions: HFD-fed mice; for muscular membrane GLUT4 protein contents: vs HF group
Experimental: as §1
(§3) Protein extractions and immunoblots for the determination of membrane GLUT4, phospho-AMPK (Thr172), and phospho-Akt (Ser 473) proteins are carried out on frozen skeletal muscle and liver tissue from mice, which follows a previous paper. Additionally, membrane GLUT4 is carried out on frozen skeletal muscle from mice, and the total membrane fractions are collected with buffer and centrifuged as a previously described. The protein contents of membrane GLUT4, phospho-AMPK, phospho-Akt, total AMPK, and total Akt are detected by western blotting. Western blotting has been determined as described elsewhere. Subsequently, antibodies are detected using horseradish peroxidase linked to a goat anti-IgG rabbit secondary antibody and visualized using an ECL system. Membrane GLUT4, structural proteins GAPDH and β-actin are purchased from Santa Cruz Biotechnology (Santa Cruz, Calif., USA); phospho-AMPK was obtained from Abcam Inc. (Cambridge, Mass., USA); phospho-Akt, total AMPK, and total Akt are from Cell Signaling Technology, Inc. (Danver Mass., USA); the BCA protein assay kit is from Thermo Scientific (Rockford, Ill., USA); and the ECL reagent kit is from GE Healthcare BioSciences (Buckinghamshire, UK). The secondary antibody antirabbit is from Jackson ImmunoResearch Laboratories, Inc. (West Grove, Pa., USA). The density blotting is analyzed using Alpha Easy FC software (Alpha Innotech Corp., Randburg, South Africa). Structural proteins GAPDH and β-actin are obtained by stripping the nitrocellulose membrane proteins of liver and skeletal muscle, respectively.

apo A-I mRNA = assay: Semiquantitative RT-PCR, liver tissue: apo A-I; assay type: in vivo, C57BL/6J mice; conditions: HFD-fed mice
Experimental: as §1, §2

phospho-AMPK (Thr172) = assay: Western blotting of phospho-AMPK (Thr172) in liver tissue and skeletal muscle; assay type: in vivo, C57BL/6J mice; conditions: HFD-fed mice
Experimental: as §1, §3

PPARα mRNA = assay: Semiquantitative RT-PCR, liver tissue: PPARα; assay type: in vivo, C57BL/6J mice; conditions: HFD-fed mice
Experimental: as §1, §2

Structure (SMILES): CC(C)[C@@H](C)C=C[C@@H](C)[C@H]1CC[C@H]2C3=CCC4C[C@@H](O)CC[C@]4(C)C3=CC[C@]12C (stereo partly drawn) [ergostatrien-3β-ol, ergosta-7,9(11),22-trien-3β-ol]
- mRNA level of SREBP1c (SREBP1c mRNA; 10 mg/kg/day): decreased
- mRNA level of SREBP1c (SREBP1c mRNA; 20 mg/kg/day): decreased
- mRNA level of SREBP1c (SREBP1c mRNA; 40 mg/kg/day): decreased
- ballooning degeneration of hepatocyte (HFD-fed C57BL/6J mice [1]; 10 mg/kg/day): decreases
- ballooning degeneration of hepatocyte (HFD-fed C57BL/6J mice [1]; 20 mg/kg/day): decreases
- ballooning degeneration of hepatocyte (HFD-fed C57BL/6J mice [1]; 40 mg/kg/day): decreases
- average area of adipocytes (epididymal WAT) (HFD-fed C57BL/6J mice [1]; 10 mg/kg/day): 4204.0±131.5 μm2
- average area of adipocytes (epididymal WAT) (HFD-fed C57BL/6J mice [1]; 20 mg/kg/day): 3535.7±340.2 μm2
- average area of adipocytes (epididymal WAT) (HFD-fed C57BL/6J mice [1]; 40 mg/kg/day): 3458.9±30.7 μm2
- mRNA level of PEPCK (PEPCK mRNA; 10 mg/kg/day): decreased
- mRNA level of PEPCK (PEPCK mRNA; 20 mg/kg/day): decreased
- mRNA level of PEPCK (PEPCK mRNA; 40 mg/kg/day): decreased
- Liver Lipids total lipid (HFD-fed C57BL/6J mice [2]; 10 mg/kg/day): 72.4 ± 3.7 mg/g
- Liver Lipids triacylglycerol (HFD-fed C57BL/6J mice [2]; 10 mg/kg/day): 57.3 ± 5.5 µmol/g
- Liver Lipids total lipid (HFD-fed C57BL/6J mice [2]; 20 mg/kg/day): 68.0 ± 4.5 mg/g
- Liver Lipids triacylglycerol (HFD-fed C57BL/6J mice [2]; 20 mg/kg/day): 44.5 ± 4.7 µmol/g
- Liver Lipids total lipid (HFD-fed C57BL/6J mice [2]; 40 mg/kg/day): 65.4 ± 4.2 mg/g
- Liver Lipids triacylglycerol (HFD-fed C57BL/6J mice [2]; 40 mg/kg/day): 43.7 ± 6.6 µmol/g
- mRNA level of DGAT2 (DGAT2 mRNA; 10 mg/kg/day): decreased
- mRNA level of DGAT2 (DGAT2 mRNA; 20 mg/kg/day): decreased
- mRNA level of DGAT2 (DGAT2 mRNA; 40 mg/kg/day): decreased
- mRNA level of SREBP2 (SREBP2 mRNA; 10 mg/kg/day): decreased
- mRNA level of SREBP2 (SREBP2 mRNA; 20 mg/kg/day): decreased
- mRNA level of SREBP2 (SREBP2 mRNA; 40 mg/kg/day): decreased
- enhancement of muscular membrane GLUT4 protein (membrane GLUT4; 40 mg/kg/day): approximately 2.7 fold
- muscular membrane GLUT4 protein contents (membrane GLUT4; 10 mg/kg/day): increased
- muscular membrane GLUT4 protein contents (membrane GLUT4; 20 mg/kg/day): increased
- muscular membrane GLUT4 protein contents (membrane GLUT4; 40 mg/kg/day): increased
- mRNA levels of apolipoprotein A-I (apo A-I) (apo A-I mRNA; 10 mg/kg/day): increased
- mRNA levels of apolipoprotein A-I (apo A-I) (apo A-I mRNA; 20 mg/kg/day): increased
- mRNA levels of apolipoprotein A-I (apo A-I) (apo A-I mRNA; 40 mg/kg/day): increased
- protein contents of phospho-AMPK (phospho-AMPK (Thr172); liver tissue, 10 mg/kg/day): significantly increased
- protein contents of phospho-AMPK (phospho-AMPK (Thr172); liver tissue, 20 mg/kg/day): significantly increased
- protein contents of phospho-AMPK (phospho-AMPK (Thr172); liver tissue, 40 mg/kg/day): significantly increased
- protein contents of phospho-AMPK (phospho-AMPK (Thr172); skeletal muscle, 10 mg/kg/day): significantly increased
- protein contents of phospho-AMPK (phospho-AMPK (Thr172); skeletal muscle, 20 mg/kg/day): significantly increased
- protein contents of phospho-AMPK (phospho-AMPK (Thr172); skeletal muscle, 40 mg/kg/day): significantly increased
- mRNA level of PPARα (PPARα mRNA; 10 mg/kg/day): increase
- mRNA level of PPARα (PPARα mRNA; 20 mg/kg/day): increase
- mRNA level of PPARα (PPARα mRNA; 40 mg/kg/day): increase
